Laboratory results published in patent publication US7799821B2, “Therapeutic compounds” (Allergan, Inc., priority 2004, dated 2010).
pEC50, pIC50, pKi: −log10 of the molar value.

molecular target: T1, human EP2 receptors (Homo sapiens, UniProt P43116); test: Competition radioligand binding ([3H]PGE2), EP2; conditions: read-out: BINDING IC50 HEP2
T1 construct: expressed in transfected cells; host or cells: HEK 293
Description: Competition binding experiments were performed in a medium containing Hank's balanced salt solution, […], membranes (˜60 μg protein) or 2×10^5 cells from HEK 293 cells stably expressing human EP2 receptors, [^3H]PGE2 (10 nM) and various concentrations of test compounds in a total volume of 300 μl. Reaction mixtures were incubated at 23° C. for 60 min, and were filtered over Whatman GF/B filters under vacuum. Filters were washed three times with 5 ml ice-cold buffer containing 50 mM Tris/HCl (pH 7.3). Non-specific binding was estimated in the presence of excess unlabeled PGE2 (10 μM). Binding data fitted to the binding model for a single class of binding sites, using nonlinear regression analysis. IC50 values thus obtained were converted to Ki using the equation of Ki=(IC50/(1+[L]/KD) where [L] represents PGE2 concentration (10 nM) and KD the dissociation constant for [^3H]PGE2 at human EP2 receptors (40 nM).
(§1) HEK-293 cells stably expressing the human or feline FP receptor, or EP1, EP2, or EP4 receptors were washed with TME buffer, scraped from the bottom of the flasks, and homogenized for 30 sec using a Brinkman PT 10/35 polytron. TME buffer was added to achieve a final 40 ml volume in the centrifuge tubes (the composition of TME is 100 mM TRIS base, 20 mM MgCl2, […]; 10N HCl is added to achieve a pH of 7.4).
(§2) The cell homogenate was centrifuged at 19000 r.p.m. for 20 min at 4° C. using a Beckman Ti-60 rotor. The resultant pellet was resuspended in TME buffer to give a final 1 mg/ml protein concentration, as determined by Biorad assay. Radioligand binding competition assays vs. [^3H-]17 —phenyl PGF2α (5 nM) were performed in a 100 μl volume for 60 min. Binding reactions were started by adding plasma membrane fraction. The reaction was terminated by the addition of 4 ml ice-cold TRIS-HCl buffer and rapid filtration through glass fiber GF/B filters using a Brandel cell harvester. The filters were washed 3 times with ice-cold buffer and oven dried for one hour.
(§3) [^3H-] PGE2 (specific activity 180 Ci mmol) was used as the radioligand for EP receptors. [^3H] 17-phenyl PGF2α was employed for FP receptor binding studies. Binding studies employing EP1, EP2, EP4 and FP receptors were performed in duplicate in at least three separate experiments. A 200 μl assay volume was used. Incubations were for 60 min at 25° C. and were terminated by the addition of 4 ml of ice-cold 50 mM TRIS-HCl, followed by rapid filtration through Whatman GF/B filters and three additional 4 ml washes in a cell harvester (Brandel). Competition studies were performed using a final concentration of 5 nM [^3H]—PGE2, or 5 nM [^3H] 17-phenyl PGF2α and non-specific binding determined with 10^−5M of unlabeled PGE2, or 17-phenyl PGF2α, according to receptor subtype studied.

T1 sequence (P43116 whole entry): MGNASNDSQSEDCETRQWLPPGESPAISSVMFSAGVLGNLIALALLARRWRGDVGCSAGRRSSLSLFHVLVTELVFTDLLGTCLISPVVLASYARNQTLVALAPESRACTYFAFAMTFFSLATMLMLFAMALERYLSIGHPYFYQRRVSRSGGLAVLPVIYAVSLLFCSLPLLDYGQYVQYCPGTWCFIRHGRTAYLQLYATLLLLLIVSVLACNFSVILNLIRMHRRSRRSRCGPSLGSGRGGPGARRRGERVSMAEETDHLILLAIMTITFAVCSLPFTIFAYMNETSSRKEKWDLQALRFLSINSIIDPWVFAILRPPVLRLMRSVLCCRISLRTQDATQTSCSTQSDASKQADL

pIC50 | SMILES
5.81 | CC(C)(C)C(O)c1ccc([C@@H]2[C@@H](C/C=C\CCCC(=O)O)[C@H](Cl)C[C@H]2O)cc1 (stereo partly drawn)

same assay, conditions: unit inferred; read-out: EP2 data Ki

pKi | SMILES
5.86 | CCCCCC(O)c1ccc(N2C(=O)CC[C@@H]2/C=C/Cc2ccc(C(=O)O)s2)cc1 (stereo partly drawn) [drawing 144]
5.64 | O=C(O)c1ccc(COC[C@H]2CCC(=O)N2c2ccc(C(O)Cc3ccccc3)cc2)o1 (stereo partly drawn)
< 5.00 | CC(C)C(O)c1ccc(N2C(=O)CC[C@@H]2COCc2ccc(C(=O)O)o2)cc1 (stereo partly drawn)
4.64 | CCCCCC(O)c1ccc(N2C(=O)CC[C@@H]2COc2ccc(C(=O)O)cc2)cc1 (stereo partly drawn) [drawing 185]

molecular target: T2, EP4 receptors (Homo sapiens, UniProt P35408); test: Radioligand binding ([3H]PGE2), EP4; conditions: unit inferred; read-out: EP4 data KI
T2 construct: expressed in transfected cells; host or cells: HEK-293
Description: as §1, §2, §3

T2 sequence (P35408 whole entry): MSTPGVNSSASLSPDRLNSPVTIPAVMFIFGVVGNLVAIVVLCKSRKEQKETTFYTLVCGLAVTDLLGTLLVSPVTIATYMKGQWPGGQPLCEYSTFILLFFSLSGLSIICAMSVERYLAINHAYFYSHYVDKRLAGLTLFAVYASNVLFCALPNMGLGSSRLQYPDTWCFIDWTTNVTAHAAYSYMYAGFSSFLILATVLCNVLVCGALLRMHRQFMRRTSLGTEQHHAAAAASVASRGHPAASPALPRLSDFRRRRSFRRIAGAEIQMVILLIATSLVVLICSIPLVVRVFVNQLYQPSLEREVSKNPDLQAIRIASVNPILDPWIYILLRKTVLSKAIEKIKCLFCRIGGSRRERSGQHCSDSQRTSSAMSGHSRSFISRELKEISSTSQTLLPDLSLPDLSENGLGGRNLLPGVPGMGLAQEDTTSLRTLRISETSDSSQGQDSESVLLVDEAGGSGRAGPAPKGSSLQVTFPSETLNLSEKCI

pKi | SMILES
< 5.00 | CCCCCC(O)c1ccc(N2C(=O)CC[C@@H]2/C=C/Cc2ccc(C(=O)O)s2)cc1 (stereo partly drawn) [drawing 144]
< 5.00 | O=C(O)c1ccc(COC[C@H]2CCC(=O)N2c2ccc(C(O)Cc3ccccc3)cc2)o1 (stereo partly drawn)
< 5.00 | CC(C)C(O)c1ccc(N2C(=O)CC[C@@H]2COCc2ccc(C(=O)O)o2)cc1 (stereo partly drawn)
5.06 | CCCCCC(O)c1ccc(N2C(=O)CC[C@@H]2COc2ccc(C(=O)O)cc2)cc1 (stereo partly drawn) [drawing 185]

molecular target: T3, hEP2/Gqs5 (Homo sapiens, UniProt P43116); test: FLIPR calcium signal, hEP2; format: cell-based; conditions: FLIPR Ca2+ signal, HEK-293(EBNA); read-out: FUNCTIONAL EC50 HEP2
T3 construct: expressed in transfected cells; host or cells: HEK-293(EBNA)
Description: (§4) HEK-293(EBNA) cells, stably expressing one type or subtype of recombinant human prostaglandin receptors (prostaglandin receptors expressed: hDP/Gqs5; hEP1; hEP2/Gqs5; hEP3A/Gqi5; hEP4/Gqs5; hFP; hIP; hTP), were cultured in 100 mm culture dishes in high-glucose DMEM medium containing 10% fetal bovine serum, 2 mM 1-glutamine, 250 μg/ml geneticin (G418) and 200 μg/ml hygromycin B as selection markers, and 100 units/ml penicillin G, 100 μg/ml streptomycin and 0.25 μg/ml amphotericin B. • (b) Calcium Signal Studies on the FLIPR™
(§5) Cells were seeded at a density of 5×10^4 cells per well in Biocoat® Poly-D-lysine-coated black-wall, clear-bottom 96-well plates (Becton-Dickinson) and allowed to attach overnight in an incubator at 37° C. Cells were then washed two times with HBSS-HEPES buffer (Hanks Balanced Salt Solution without bicarbonate and phenol red, 20 mM HEPES, pH 7.4) using a Denley Cellwash plate washer (Labsystems). After 45 minutes of dye-loading in the dark, using the calcium-sensitive dye Fluo-4 AM at a final concentration of 2 μM, plates were washed four times with HBSS-HEPES buffer to remove excess dye leaving 100 μl in each well. Plates were re-equilibrated to 37° C. for a few minutes.
(§6) Cells were excited with an Argon laser at 488 nm, and emission was measured through a 510-570 nm bandwidth emission filter (FLIPR™, Molecular Devices, Sunnyvale, Calif.). Drug solution was added in a 50 μl volume to each well to give the desired final concentration. The peak increase in fluorescence intensity was recorded for each well. On each plate, four wells each served as negative (HBSS-HEPES buffer) and positive controls (standard agonists: BW245C (hDP); PGE2 (hEP1; hEP2/Gqs5; hEP3A/Gqi5; hEP4/Gqs5); PGF2α (hFP); carbacyclin (hIP); U-46619 (hTP), depending on receptor). The peak fluorescence change in each drug-containing well was then expressed relative to the controls.
(§7) Compounds were tested in a high-throughput (HTS) or concentration-response (CoRe) format. In the HTS format, forty-four compounds per plate were examined in duplicates at a concentration of 10^−5 M. To generate concentration-response curves, four compounds per plate were tested in duplicates in a concentration range between 10^−5 and 10^−11 M. The duplicate values were averaged. In either, HTS or CoRe format each compound was tested on at least 3 separate plates using cells from different passages to give an n≧3.

T3 sequence (P43116 whole entry): as the sequence (P43116 whole entry) above

pEC50 | SMILES
6.11 | CC(C)(C)C(O)c1ccc([C@@H]2[C@@H](C/C=C\CCCC(=O)O)[C@H](Cl)C[C@H]2O)cc1 (stereo partly drawn)

same assay, conditions: unit inferred; other columns of the table in nM; read-out: EP2 data flipr EC50

EC50 | SMILES
226 nM | CCCCCC(O)c1ccc(N2C(=O)CC[C@@H]2/C=C/Cc2ccc(C(=O)O)s2)cc1 (stereo partly drawn) [drawing 144]
1230 nM | O=C(O)c1ccc(COC[C@H]2CCC(=O)N2c2ccc(C(O)Cc3ccccc3)cc2)o1 (stereo partly drawn)
7670 nM | CC(C)C(O)c1ccc(N2C(=O)CC[C@@H]2COCc2ccc(C(=O)O)o2)cc1 (stereo partly drawn)
7280 nM | CCCCCC(O)c1ccc(N2C(=O)CC[C@@H]2COc2ccc(C(=O)O)cc2)cc1 (stereo partly drawn) [drawing 185]

molecular target: T4, hEP4/Gqs5 (Homo sapiens, UniProt P35408); test: FLIPR calcium signal, hEP4; format: cell-based; conditions: FLIPR Ca2+ signal, HEK-293(EBNA); read-out: FUNCTIONAL EC50 HEP4
T4 construct: expressed in transfected cells; host or cells: HEK-293(EBNA)
Description: as §4, §5, §6, §7

T4 sequence (P35408 whole entry): as the sequence (P35408 whole entry) above

pEC50 | SMILES
< 5.00 | CC(C)(C)C(O)c1ccc([C@@H]2[C@@H](C/C=C\CCCC(=O)O)[C@H](Cl)C[C@H]2O)cc1 (stereo partly drawn)

molecular target: T5, HEK-EBNA cells expressing a PG EP2 receptor subtype (Homo sapiens, UniProt P43116); test: cAMP assay, EP2; format: cell-based; conditions: unit inferred; read-out: EP2 data cAMP EC50
T5 construct: expressed in transfected cells; host or cells: HEK-EBNA
Description: A 384-well drug plate was prepared to contain 6 test compounds, PGE2 and cAMP in 16 serial dilutions in triplicate, using a Biomek station. HEK-EBNA cells expressing a target PG receptor subtype (EP2 or EP4) were suspended in a stimulation buffer (HBSS, 0.1% BSA, 0.5 mM IBMX and 5 mM HEPES, pH 7.4) in a density of 10^4 cells/5 μl. The reaction was initiated by mixing 5 μL drug dilutions with 5 μl of HEK-EBNA cells in a well, carried out for 30 min at room temperature, and followed by the addition of 5 μl anti-cAMP acceptor beads in the control buffer with Tween-20 (25 mM NaCl, 0.03% Tween-20, 5 mM HEPES, pH7.4). After 30 min in the dark at room temperature, the mixtures were incubated with 15 μl biotinylated-cAMP/strepavidin donor beads in Lysis/Detection buffer (0.1% BSA, 0.3% Tween-20 and 5 mM HEPES, pH7.4) for 45 min at the room temperature. Fluorescence changes were read using a Fusion-alpha HT microplate reader.

T5 sequence (P43116 whole entry): as the sequence (P43116 whole entry) above

pEC50 | SMILES
7.82 | CCCCCC(O)c1ccc(N2C(=O)CC[C@@H]2/C=C/Cc2ccc(C(=O)O)s2)cc1 (stereo partly drawn) [drawing 144]
6.83 | O=C(O)c1ccc(COC[C@H]2CCC(=O)N2c2ccc(C(O)Cc3ccccc3)cc2)o1 (stereo partly drawn)
5.91 | CC(C)C(O)c1ccc(N2C(=O)CC[C@@H]2COCc2ccc(C(=O)O)o2)cc1 (stereo partly drawn)
